The target of experiment [1] is Synaptic vesicular amine transporter (Rattus norvegicus) (UniProt Q01827). Nature of the experiment: Displacement of [3H]DTBZ from VMAT2 in rat whole brain relative to quinlobelane.
Experiment [2] has the same target. Nature of the experiment: Ratio of Ki for displacement of [3H]DTBZ from VMAT2 in rat whole brain to Ki for inhibition of VMAT2-mediated [3H]DA uptake in rat brain synaptic vesicles. Type of experiment: tissue-based. A general note: Displacement assays read how much labelled ligand stays bound in the presence of the test substance.
Experiment [3] has as its target T1, Synaptic vesicular amine transporter (Rattus norvegicus, UniProt Q01827). Put plainly: Inhibition of VMAT2-mediated [3H]DA uptake in rat brain synaptic vesicles by liquid scintillation spectrometry. It is filed as tissue-based.
The target of experiment [4] is T1, Synaptic vesicular amine transporter. Put plainly: Displacement of [3H]DTBZ from VMAT2 in rat whole brain by liquid scintillation spectrometry.

In general, Ki refers to the dissociation constant of the complex between target and ligand, obtained from inhibition or displacement. A low value points to a stronger hold on the target.

T1 sequence (Q01827 whole entry): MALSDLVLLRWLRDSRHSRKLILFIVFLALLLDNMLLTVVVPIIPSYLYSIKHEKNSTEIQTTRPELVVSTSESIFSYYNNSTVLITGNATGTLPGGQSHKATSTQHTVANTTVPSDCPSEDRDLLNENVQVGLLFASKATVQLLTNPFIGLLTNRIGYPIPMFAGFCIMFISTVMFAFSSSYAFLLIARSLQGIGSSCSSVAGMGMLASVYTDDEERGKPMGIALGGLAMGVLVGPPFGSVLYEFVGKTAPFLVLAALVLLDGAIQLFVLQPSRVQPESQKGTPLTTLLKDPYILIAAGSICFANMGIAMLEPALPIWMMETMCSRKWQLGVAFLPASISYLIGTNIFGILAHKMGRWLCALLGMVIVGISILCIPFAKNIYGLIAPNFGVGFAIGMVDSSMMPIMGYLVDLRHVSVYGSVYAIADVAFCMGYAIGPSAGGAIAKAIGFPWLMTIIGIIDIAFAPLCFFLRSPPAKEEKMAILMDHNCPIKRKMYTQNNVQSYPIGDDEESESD
Sequence of Synaptic vesicular amine transporter (Rattus norvegicus) (Q01827 whole entry): as above

For the compound `c1ccc2nc(CC[C@H]3CCC[C@@H](CCc4ccc5ccccc5n4)N3)ccc2c1`, the Ratio Ki in experiment [1] was 9; in experiment [2], 3. Moreover, the results for the Ki in experiment [3] and in experiment [4] were 57 nM and 293 nM, respectively.
The matching figures for `c1cnc2ccc(CC[C@H]3CCC[C@@H](CCc4ccc5ncccc5c4)N3)cc2c1`: 4, 3, 42 nM and 647 nM.
In the case of `OC[C@H](O)CN1[C@@H](CCc2ccc3ccccc3n2)CCC[C@H]1CCc1ccc2ccccc2n1`, the values for the Ratio Ki in experiment [1] and in experiment [2] were 4 and 3, respectively. For the same compound, the Ki in experiment [3] came out at 240 nM; in experiment [4], 627 nM.
As for `c1ccc2c(CC[C@H]3CCC[C@@H](CCc4ccnc5ccccc45)N3)ccnc2c1`, the Ki stood at 42 nM in experiment [3] and 178 nM in experiment [4].

The values are drawn from ChEMBL document CHEMBL3588780, “Quinolyl analogues of norlobelane: novel potent inhibitors of [(3)H]dihydrotetrabenazine binding and [(3)H]dopamine uptake at the vesicular monoamine transporter-2” (Bioorg Med Chem Lett, 2015).
